Assay results as given in patent US8952024B2, “Herbicidal pyrimidone derivatives” (E I du Pont de Nemours and Company, priority 2009, dated 2015).

Tests used:
Test in all cases: Test C plant response
Type in all cases: in vivo
Settings in all cases: Postemergence, scale 0 to 100
wild oat (Avena fatua) = system: wild oat (Avena fatua)
Text: (§1) Seeds of plant species selected from bluegrass (annual bluegrass, Poa annua), blackgrass (Alopecurus myosuroides), canarygrass (Phalaris minor), chickweed (common chickweed, Stellaria media), galium (catchweed bedstraw, Galium aparine), bromegrass (downy bromegrass, Bromus tectorum), field poppy (Papaver rhoeas), field violet (Viola arvensis), green foxtail (Setaria viridis), deadnettle (henbit deadnettle, Lamium amplexicaule), Italian ryegrass (Lolium multiflorum), kochia (Kochia scoparia), lambsquarters (Chenopodium album), oilseed rape (Brassica napus), pigweed (Amaranthus retroflexus), Russian thistle (Salsola iberica), spring barley (Hordeum vulgare), spring wheat (Triticum aestivum), buckwheat (wild buckwheat, Polygonum convolvulus), wild mustard (Sinapis arvensis), wild oat (Avena fatua), wild radish (Raphanus raphanistrum), windgrass (Apera spica-venti), winter barley (Hordeum vulgare), and winter wheat (Triticum aestivum) were planted and treated postemergence with test chemicals formulated in a non-phytotoxic solvent mixture which included a surfactant. Plants ranged in height from 2 to 18 cm (1- to 4-leaf stage).
(§2) Treated plants and controls were maintained in a controlled growth environment for 14 days after which time all test plants were visually evaluated and compared to controls. Plant response ratings, summarized in Table C, are based on a scale of 0 to 100 where 0 is no effect and 100 is complete control. A dash (-) response means no test result.

[1] = system: wild radish (Raphanus raphanistrum)
Text: as §1, §2

[2] = system: green foxtail (Setaria viridis)
Text: as §1, §2

[3] = system: oilseed rape (Brassica napus)
Text: as §1, §2

[4] = system: winter barley (Hordeum vulgare)
Text: as §1, §2

[5] = system: bromegrass (downy bromegrass, Bromus tectorum)
Text: as §1, §2

[6] = system: Italian ryegrass (Lolium multiflorum)
Text: as §1, §2

kochia (Kochia scoparia) = system: kochia (Kochia scoparia)
Text: as §1, §2

[7] = system: galium (catchweed bedstraw, Galium aparine)
Text: as §1, §2

[8] = system: wild mustard (Sinapis arvensis)
Text: as §1, §2

[9] = system: spring barley (Hordeum vulgare)
Text: as §1, §2

[10] = system: pigweed (Amaranthus retroflexus)
Text: as §1, §2

[11] = system: blackgrass (Alopecurus myosuroides)
Text: as §1, §2

[12] = system: field violet (Viola arvensis)
Text: as §1, §2

[13] = system: bluegrass (annual bluegrass, Poa annua)
Text: as §1, §2

[14] = system: deadnettle (henbit deadnettle, Lamium amplexicaule)
Text: as §1, §2

[15] = system: Russian thistle (Salsola iberica)
Text: as §1, §2

Compound: Cc1ccccc1-n1c(-c2ccccc2)ncc(C(=O)C2=C(O)CCCC2=O)c1=O [Compound 12]
- Plant response rating: Oat, Wild (wild oat (Avena fatua); 31 g ai/ha): 15
- Plant response rating: Oat, Wild (wild oat (Avena fatua); 16 g ai/ha): 0
- Plant response rating: Oat, Wild (wild oat (Avena fatua); 62 g ai/ha): 15
- Plant response rating: Oat, Wild (wild oat (Avena fatua); 125 g ai/ha): 15
- Plant response rating: Radish, Wild ([1]; 31 g ai/ha): 80
- Plant response rating: Radish, Wild ([1]; 16 g ai/ha): 60
- Plant response rating: Radish, Wild ([1]; 62 g ai/ha): 90
- Plant response rating: Radish, Wild ([1]; 125 g ai/ha): 90
- Plant response rating: Foxtail, Green ([2]; 31 g ai/ha): 60
- Plant response rating: Foxtail, Green ([2]; 16 g ai/ha): 50
- Plant response rating: Foxtail, Green ([2]; 62 g ai/ha): 80
- Plant response rating: Foxtail, Green ([2]; 125 g ai/ha): 90
- Plant response rating: Oilseed Rape ([3]; 31 g ai/ha): 70
- Plant response rating: Oilseed Rape ([3]; 16 g ai/ha): 50
- Plant response rating: Oilseed Rape ([3]; 62 g ai/ha): 80
- Plant response rating: Oilseed Rape ([3]; 125 g ai/ha): 95
- Plant response rating: Barley, Winter ([4]; 31 g ai/ha): 0
- Plant response rating: Barley, Winter ([4]; 16 g ai/ha): 0
- Plant response rating: Barley, Winter ([4]; 62 g ai/ha): 0
- Plant response rating: Barley, Winter ([4]; 125 g ai/ha): 0
- Plant response rating: Bromegrass, Downy ([5]; 31 g ai/ha): 10
- Plant response rating: Bromegrass, Downy ([5]; 16 g ai/ha): 0
- Plant response rating: Bromegrass, Downy ([5]; 62 g ai/ha): 15
- Plant response rating: Bromegrass, Downy ([5]; 125 g ai/ha): 20
- Plant response rating: Ryegrass, Italian ([6]; 31 g ai/ha): 0
- Plant response rating: Ryegrass, Italian ([6]; 16 g ai/ha): 0
- Plant response rating: Ryegrass, Italian ([6]; 62 g ai/ha): 0
- Plant response rating: Ryegrass, Italian ([6]; 125 g ai/ha): 0
- Plant response rating: Kochia (kochia (Kochia scoparia); 31 g ai/ha): 10
- Plant response rating: Kochia (kochia (Kochia scoparia); 16 g ai/ha): 0
- Plant response rating: Kochia (kochia (Kochia scoparia); 62 g ai/ha): 35
- Plant response rating: Kochia (kochia (Kochia scoparia); 125 g ai/ha): 75
- Plant response rating: Galium ([7]; 31 g ai/ha): 50
- Plant response rating: Galium ([7]; 16 g ai/ha): 5
- Plant response rating: Galium ([7]; 62 g ai/ha): 60
- Plant response rating: Galium ([7]; 125 g ai/ha): 80
- Plant response rating: Mustard, Wild ([8]; 31 g ai/ha): 95
- Plant response rating: Mustard, Wild ([8]; 16 g ai/ha): 80
- Plant response rating: Mustard, Wild ([8]; 62 g ai/ha): 95
- Plant response rating: Mustard, Wild ([8]; 125 g ai/ha): 95
- Plant response rating: Barley, Spring ([9]; 31 g ai/ha): 0
- Plant response rating: Barley, Spring ([9]; 16 g ai/ha): 0
- Plant response rating: Barley, Spring ([9]; 62 g ai/ha): 0
- Plant response rating: Barley, Spring ([9]; 125 g ai/ha): 0
- Plant response rating: Pigweed ([10]; 31 g ai/ha): 65
- Plant response rating: Pigweed ([10]; 16 g ai/ha): 65
- Plant response rating: Pigweed ([10]; 62 g ai/ha): 75
- Plant response rating: Pigweed ([10]; 125 g ai/ha): 75
- Plant response rating: Blackgrass ([11]; 31 g ai/ha): 20
- Plant response rating: Blackgrass ([11]; 16 g ai/ha): 0
- Plant response rating: Blackgrass ([11]; 62 g ai/ha): 30
- Plant response rating: Blackgrass ([11]; 125 g ai/ha): 40
- Plant response rating: Field Violet ([12]; 31 g ai/ha): 35
- Plant response rating: Field Violet ([12]; 16 g ai/ha): 35
- Plant response rating: Field Violet ([12]; 62 g ai/ha): 40
- Plant response rating: Field Violet ([12]; 125 g ai/ha): 40
- Plant response rating: Bluegrass ([13]; 31 g ai/ha): 20
- Plant response rating: Bluegrass ([13]; 16 g ai/ha): 10
- Plant response rating: Bluegrass ([13]; 62 g ai/ha): 30
- Plant response rating: Bluegrass ([13]; 125 g ai/ha): 40
- Plant response rating: Deadnettle ([14]; 31 g ai/ha): 100
- Plant response rating: Deadnettle ([14]; 16 g ai/ha): 100
- Plant response rating: Deadnettle ([14]; 62 g ai/ha): 100
- Plant response rating: Deadnettle ([14]; 125 g ai/ha): 100
- Plant response rating: Russian Thistle ([15]; 31 g ai/ha): 60
- Plant response rating: Russian Thistle ([15]; 16 g ai/ha): 60
- Plant response rating: Russian Thistle ([15]; 62 g ai/ha): 60
- Plant response rating: Russian Thistle ([15]; 125 g ai/ha): 70
